Source: patent US4555519A, “Thromboxane synthetase enzyme inhibiting N-[(1H-imidazol-1-yl) and (1H-1,2,4-triazol-1-yl)alkyl]pyridinecarboxamides” (American Cyanamid Company, priority 1984, dated 1985)

Experiments:
[1] = molecular target: T1, thromboxane synthetase enzyme (Rattus norvegicus, UniProt P49430); experiment: inhibition of thromboxane (TXA2) formation, TXB2 determined by direct radioimmunoassay in washed rat platelets; assay type: cell-based, Okamoto-Aoki spontaneously hypertensive rats (SHR); conditions: Dose 10^-4 M; SHR platelets, 10 minutes at 37° C.
T1 construct: endogenous in cells; host or cells: washed platelets from arterial blood of Okamoto-Aoki spontaneously hypertensive rats (Taconic Farms, Germantown, NY)
T1 sequence (P49430 1-533): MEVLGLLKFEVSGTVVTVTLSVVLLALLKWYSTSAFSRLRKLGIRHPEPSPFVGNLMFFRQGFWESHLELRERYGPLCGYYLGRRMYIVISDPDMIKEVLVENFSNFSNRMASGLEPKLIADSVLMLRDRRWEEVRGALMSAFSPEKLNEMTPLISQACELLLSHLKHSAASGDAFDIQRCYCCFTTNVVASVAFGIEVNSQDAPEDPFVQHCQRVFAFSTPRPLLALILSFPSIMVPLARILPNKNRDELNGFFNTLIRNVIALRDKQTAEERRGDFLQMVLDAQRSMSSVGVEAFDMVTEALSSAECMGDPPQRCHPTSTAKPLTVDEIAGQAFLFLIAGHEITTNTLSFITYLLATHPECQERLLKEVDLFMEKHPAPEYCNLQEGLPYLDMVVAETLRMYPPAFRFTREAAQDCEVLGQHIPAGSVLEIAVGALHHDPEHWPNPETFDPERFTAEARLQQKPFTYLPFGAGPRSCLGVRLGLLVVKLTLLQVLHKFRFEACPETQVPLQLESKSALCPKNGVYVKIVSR
Description: The inhibition of thromboxane (TXA2) formation was studied by determining the concentration of thromboxane B2 (TXB2), the stable hydrolysis product of TXA2.
Under urethan anesthesia, […] of arterial blood was collected in one ml of 3.2% sodium citrate in a polystyrene tube from Okamoto-Aoki spontaneously hypertensive rats (SHR) (Taconic Farms, Germantown, NY) between 19 and 24 weeks in age. The blood was diluted with 3 ml cold saline and centrifuged at room temperature for 15 minutes at 460 xg. The platelet rich plasma (PRP) was separated. The platelets were isolated by centrifuging the PRP for 10 minutes at 1060 xg and were washed in 4 ml cold oxygenated Krebs phosphate buffer, pH 7.4. The chilled platelets recovered from centrifuging at 800 xg for 10 minutes were resuspended in oxygenated Krebs phosphate buffer and diluted to contain 4.5-6.0×10^4 platelets/μl. Assay samples, prepared on ice, contained 200 μl platelet suspension, 50 μl saline, and 50 μl vehicle or drug under study (OKY-1581, UK-37248-01, 1-benzylimidazole, or indomethacin). The samples were incubated for 10 minutes at 37° C. in a metabolic shaker. The reaction was terminated by immersing the tubes in an ice bath and adding 50 μl of 0.5M citric acid. The samples were centrifuged for 10 minutes in a refrigerated centrifuge and the supernatants thus obtained were decanted and stored at -20° C. The TXB2 content for each sample was determined by a direct radioimmunoassay (RIA) utilizing a TXB2 specific RIA kit purchased from New England Nuclear, Boston, Mass. and expressed as pg TXB2 formed minute^-1 sample^-1, from which the percent inhibition of TXB2 formation was calculated.

[2] = hypotensive activity in spontaneously hypertensive rats, mean arterial blood pressure (method of Chan and Poorvin); assay type: in vivo; conditions: gavage, 100 mg/kg or less, two doses 24 hours apart; measured 28 hours after initial dose; average MABP of rats used 160±1.5 mm Hg; (no. of rats) in parentheses
Description: The novel compounds of the present invention also are active antihypertensive agents and were tested for hypotensive activity by the method of P. S. Chan and D. Poorvin, Clinical and Experimental Hypertension, 1 (6), 817-830 (1979). Male, 16 week old, spontaneously hypertensive rats of the Okamoto strain, from Taconic Farms, Germantown, N.Y., having an average mean arterial blood pressure of 160±1.5 mm of mercury are used in the test. One to three rats are used per test compound. A rat is dosed by gavage with a test compound, suspended in 2% pre-boiled starch at a concentration of 50 mg/ml, at a dose of 100 mg/kg of body weight or less with 0.9% sodium chloride loading at a dose of 25 ml/kg of body weight. A second identical dose of the test compound without sodium chloride loading is given 24 hours later. At 28 hours after the initial dose the mean arterial blood pressure is measured by the method of Chan and Poorvin vide supra. The procedure is repeated in a second and third rat when necessary.

Structure (SMILES) | inhibition at 100 µM [1] [%] | MABP in mm Hg [2] [mm Hg]
O=C(NCCCn1cncn1)c1ccc(Cl)nc1 [6-Chloro-N-[3-(1H-1,2,4-triazol-1-yl)propyl]-3-pyridinecarboxamide] | 67 | 140
O=C(NCCCn1ccnc1)c1ccc(Cl)nc1 [6-Chloro-N--[3-(1H--imidazol-1-yl)propyl]-3-pyridinecarboxamide] | 88 | 132
O=C(NCCCCn1ccnc1)c1ccc(Cl)nc1 [6-Chloro-N--[4-(1H--imidazol-1-yl)butyl]-3-pyridinecarboxamide] | 94 | 
Cc1nccn1CCCNC(=O)c1cccnc1Cl [2-Chloro-N-[3-(2-methyl-1H-imidazol-1-yl)propyl]-3-pyridinecarboxamide] | 38 | 
Cc1nccn1CCCNC(=O)c1ccc(Cl)nc1 [6-Chloro-N-[3-(2-methyl-1H-imidazol-1-yl)propyl]-3-pyridinecarboxamide] | 44 | 
O=C(NCCCn1ccnc1)c1cccnc1Cl [2-Chloro-N--[3-(1H--imidazol-1-yl)propyl]-3-pyridinecarboxamide] | 58 | 
O=C(NCCCCn1ccnc1)c1cccnc1Cl [2-Chloro-N--[4-(1H--imidazol-1-yl)butyl]-3-pyridinecarboxamide] | 90 | 
CC(CNC(=O)c1ccc(Cl)nc1)Cn1ccnc1 (stereo not shown) [6-Chloro-N-[3-(1H-imidazol-1-yl)-2-methylpropyl]-3-pyridinecarboxamide] | 98 | 129
Cc1cn(CCCNC(=O)c2cccnc2Cl)cn1 [2-Chloro-N--[3-(4-methyl-1H--imidazol-1-yl)propyl]-3-pyridinecarboxamide] | 50 | 
CC(CCNC(=O)c1ccc(Cl)nc1)n1ccnc1 (stereo not shown) [6-Chloro-N-[3-(1H-imidazol-1-yl)butyl]-3-pyridinecarboxamide] | 98 | 111

Now from value to compound, other results behind:

inhibition at 100 µM [1] [%] | Structure (SMILES) | MABP in mm Hg [2] [mm Hg]
84 | Cc1cn(CCCNC(=O)c2ccccn2)cn1 [N--[3-(4-Methyl-1H--imidazol-1-yl)propyl]-2-pyridinecarboxamide] | 140
50 | Cc1cn(CCCNC(=O)c2cccnc2)cn1 [N--[3-(4-Methyl-1H--imidazol-1-yl)propyl]-3-pyridinecarboxamide] | 123
82 | O=C(NCCCCn1ccnc1)c1ccccn1.O=C(O)/C=C/C(=O)O [N-[4-(1H-Imidazol-1-yl)butyl]-2-pyridinecarboxamide, fumarate] | 116
30 | O=C(NCCCn1ccnc1-c1ccccc1)c1ccccn1 [N-[3-(2-Phenyl-1H-imidazol-1-yl)propyl]-2-pyridinecarboxamide] | 
56 | O=C(NCCCn1ccnc1-c1ccccc1)c1ccc(Cl)nc1 [6-Chloro-N-[3-(2-phenyl-1H-imidazol-1-yl)propyl]-3-pyridinecarboxamide] | 
83 | O=C(NCCCn1ccnc1)c1cccnc1 [N--[3-(1H--Imidazol-1-yl)propyl]-3-pyridinecarboxamide] | 138
86 | Cc1cn(CCCNC(=O)c2ccc(Cl)nc2)cn1 [6-Chloro-N-[3-(4-methyl-1H-imidazol-1-yl)propyl]-3-pyridinecarboxamide] | 139
59 | O=C(NCCCn1ccnc1)c1ccccn1 [N-[3-(1H-Imidazol-1-yl)propyl]-2-pyridinecarboxamide] | 127
